Here are results for 30 molecules from patent publication US11643413B2, “9-(2-oxacycloalkyl)-9H-purine-2,6-diamine derivatives and their use for the treatment of skin disorders” (UNIVERZITA PALACKEHO V OLOMOUCI, priority 2017, dated 2023).

Like-named read-outs stand apart in the source and are kept apart here. Where only a bound is given, the exact number is not on record here.

The subject of data set [1] is B10A.4. Description: Calcein AM cytotoxicity, B10A.4 (first column). Particulars: read-out: Cytotoxicity IC50, B10A.4; 72 hours incubation, Calcein AM; highest concentration […].
Text: (§1) One of the parameters used, as the basis for cytotoxicity assays, is the metabolic activity of viable cells. For example, a microtiter assay, which uses the Calcein AM, is now widely used to quantitate cell proliferation and cytotoxicity. […] Because only metabolically active cells cleave Calcein AM, these assays detect viable cells exclusively. The quantity of reduced Calcein AM corresponds to the number of vital cells in the culture.
(§2) Mouse fibroblasts NIH3T3; mouse immortalized bone marrow macrophages B2.4 and B10A.4, and BJ (human foreskin fibroblasts) were used for routine screening of compounds. The cells were maintained in Nunc/Corning 80 cm^2 plastic tissue culture flasks and cultured in cell culture medium (DMEM with 5 g/l glucose, 2 mM glutamine, 100 U/ml penicillin, 100 μg/ml streptomycin, 10% fetal calf serum and sodium bicarbonate).
(§3) The cell suspensions that were prepared and diluted according to the particular cell type and the expected target cell density (2.500-30.000 cells per well based on cell growth characteristics) were added by pipette (80 μl) into 96/well microtiter plates. Inoculates were allowed a pre-incubation period of 24 hours at 37° C. and 5% CO2 for stabilisation. Four-fold dilutions of the intended test concentration were added at time zero in 20 μl aliquots to the microtiter plate wells. Usually, the compound tested was evaluated at six 4-fold dilutions. […] All compound concentrations were examined in duplicates. Incubations of cells with the tested compounds lasted for 72 hours at 37° C., in 5% CO2 atmosphere and 100% humidity. At the end of the incubation period, the cells were assayed by using Calcein AM. Ten microliters of the stock solution were pipetted into each well and incubated for 1 hour. Fluorescence (FD) was measured with the Labsystem FIA Reader Fluoroscan Ascent (UK).
For data set [2], the system named is NIH-3T3. In words: Calcein AM cytotoxicity, NIH-3T3. The following applies: read-out: Cytotoxicity IC50, NIH-3T3; 72 hours incubation, Calcein AM; highest concentration […].
Text: as §1, §2, §3
For another data set, the system named is NIH3T3 fibroblasts. Description: Peroxidation of membrane lipids, MDA by TBA method. It is filed as cell-based, mouse. The following applies: FW = fresh weight. As for the experimental part:
A typical symptom associated with aging is the direct consequence of increased concentrations of reactive oxygen species and lipid peroxidation. […] MDA levels were measured using thiobarbituric acid (TBA method). […] The crude extract was centrifuged at 10,000×g for 5 minutes and 100 μl aliquots of the supernatant were mixed with 100 μl of 0.5% (w/v) TBA containing 0.1% (w/v) trichloroacetic acid. The resulting solution was then incubated for 30 min at 95° C. The samples were rapidly cooled on ice and centrifuged for 5 minutes at 1000×g. […] The newly prepared derivatives of the general formula thus have a protective function against the negative effects of reactive oxygen species that accumulate strongly in the tissues.

Data set [3] concerns BJ (human foreskin fibroblasts). Description: Calcein AM cytotoxicity, BJ. The following applies: read-out: Cytotoxicity IC50, BJ; 72 hours incubation, Calcein AM; highest concentration […].
Text: as §1, §2, §3
In data set [4] the test system is NIH-3T3.
Text: as §1, §2, §3
Data set [5] concerns B10A.4.
Text: as §1, §2, §3
Data set [6] deals with BJ (human foreskin fibroblasts).
Text: as §1, §2, §3
The nature of data set [7]: Radical scavenging activity determined by ORAC. The following applies: relative to trolox; Mean ± SD (n = 3). The method, then:
The ability of compounds to scavenge free radicals in vitro was determined by Oxygen Radical Absorbance Capacity (ORAC) method. In brief, fluorescein (100 μl, […]) and 25 μl of compound solution were added into each working well in a 96-well microplate preincubated at 37° C. Thereafter, 25 μL of 250 mM AAPH was quickly added, microplate was shaken for 5 s and the fluorescence (Ex. 485 nm, Em. 510 nm) was read every 3 min over 90 min by using microplate reader Infinite 200 (TECAN, Switzerland). The net area under the curve was used to express antioxidant activity relative to trolox which was used as a standard.

One may read the IC50 as the concentration needed to halve the response being measured. As to `CN(C)c1nc(NCc2ccco2)c2ncn(C3CCO3)c2n1` (stereo not shown) [Compound 3], the IC50 (with B10A.4 [1]; in the data set with NIH-3T3 [2]; in data set [3]) was above 167 µM each time. Moreover, in the data set with NIH3T3 fibroblasts, the MDA came to 12.4 nmol/g FW.
As for `CCN(CC)c1nc(NCc2ccccc2)c2ncn(C3CCO3)c2n1` (stereo not shown) [Compound 9], the 50% inhibitory concentration (IC50) (in the data set on B10A.4 [1]; in the data set on NIH-3T3 [2]; in data set [3]) was above 167 µM in each case. The MDA in the data set with NIH3T3 fibroblasts came to 12.2 nmol/g FW.
As for `CNc1nc(NCc2cc(C)co2)c2ncn(C3CCCO3)c2n1` (stereo not shown) [Compound 39], in the data set on NIH3T3 fibroblasts, the MDA turned out to be 11.4 nmol/g FW. Moreover, the IC50 (in the data set with NIH-3T3 [4]; in the data set on B10A.4 [5]; in data set [6]) was above 167 µM each time.
As to `CCN(CC)c1nc(NCc2ccc(C)o2)c2ncn(C3CCCO3)c2n1` (stereo not shown) [Compound 47], in the data set on NIH3T3 fibroblasts, the MDA came to 12.5 nmol/g FW. The IC50 (with NIH-3T3 [4]; in the data set with B10A.4 [5]; in data set [6]) was above 167 µM throughout.
For `COc1coc(CNc2nc(NCCN(C)C)nc3c2ncn3C2CCCO2)c1` (stereo not shown) [Compound 58], the MDA with NIH3T3 fibroblasts is recorded as 11.4 nmol/g FW. The 50% inhibitory concentration (IC50) (in the data set with NIH-3T3 [4]; with B10A.4 [5]; in data set [6]) was above 167 µM each time.
As to `CNc1nc(NCc2ccc(OC)o2)c2ncn(C3CCCO3)c2n1` (stereo not shown) [Compound 59], the MDA in the data set on NIH3T3 fibroblasts turned out to be 11.5 nmol/g FW. The half-maximal inhibitory concentration (IC50) (in the data set with NIH-3T3 [4]; with B10A.4 [5]; in data set [6]) was above 167 µM throughout.
In the case of `CCNc1nc(NCc2ccc(OC)o2)c2ncn(C3CCCO3)c2n1` (stereo not shown) [Compound 60], the MDA with NIH3T3 fibroblasts is reported as 12.2 nmol/g FW. For the same molecule, the concentration for half-maximal inhibition (IC50) (in the data set with NIH-3T3 [4]; in the data set on B10A.4 [5]; in data set [6]) was above 167 µM throughout.
Regarding `CNc1nc(NCc2ccccc2)c2ncn(C3CCCO3)c2n1` (stereo not shown) [Compound 64, 2-(Methylamino)-6-benzylamino-9-(tetrahydrofuran-2-yl)-9H-purine], the “ORAC (compound/trolox)” value in data set [7] is on record as 0.24 ± 0.001.
Regarding `CN(C)c1nc(NCc2cccc(O)c2)c2ncn(C3CCCO3)c2n1` (stereo not shown) [Compound 71, 2-(Dimethylamino)-6-(3-hydroxybenzylamino)-9-(tetrahydrofuran-2-yl)-9H-purine], the “ORAC (compound/trolox)” value in data set [7] is 5.212 ± 0.238.
For `CCNc1nc(NCc2ccc(O)cc2)c2ncn(C3CCCO3)c2n1` (stereo not shown) [Compound 75], the MDA with NIH3T3 fibroblasts amounted to 11.7 nmol/g FW. In addition, the IC50 (in the data set with NIH-3T3 [4]; with B10A.4 [5]; in data set [6]) was above 167 µM throughout.
For `CN(C)c1nc(NCc2ccc(O)cc2)c2ncn(C3CCCO3)c2n1` (stereo not shown) [Compound 76, 2-(Dimethylamino)-6-[(4-hydroxybenzyl)amino]-9-(tetrahydrofuran-2-yl)-9H-purine], the “ORAC (compound/trolox)” value in data set [7] was found to be 0.192 ± 0.005.
`CCN(CC)c1nc(NCc2cccc(OC)c2)c2ncn(C3CCCO3)c2n1` (stereo not shown) [Compound 82]: the MDA in the data set with NIH3T3 fibroblasts is reported as 10.9 nmol/g FW. Besides, the IC50 (in the data set with NIH-3T3 [4]; in the data set on B10A.4 [5]; in data set [6]) was above 167 µM throughout.
For the molecule `CCNc1nc(NCc2ccc(OC)cc2)c2ncn(C3CCCO3)c2n1` (stereo not shown) [Compound 85], in the data set on NIH3T3 fibroblasts, the MDA was determined as 11.1 nmol/g FW. The half-maximal inhibitory concentration (IC50) (in the data set with NIH-3T3 [4]; in the data set on B10A.4 [5]; in data set [6]) was above 167 µM throughout.
Take `CCN(CC)c1nc(NCc2ccc(OC)cc2)c2ncn(C3CCCO3)c2n1` (stereo not shown) [Compound 87]: in the data set with NIH3T3 fibroblasts, the MDA is recorded as 10.4 nmol/g FW. Further, the IC50 (in the data set on NIH-3T3 [4]; in the data set on B10A.4 [5]; in data set [6]) was above 167 µM each time.
Regarding `COc1cc(CNc2nc(N(C)C)nc3c2ncn3C2CCCO2)ccc1O` (stereo not shown) [Compound 89, 2-(Dimethylamino)-6-[(4-hydroxy-3-methoxybenzyl)amino]-9-(tetrahydrofuran-2-yl)-9H-purine], the “ORAC (compound/trolox)” value in data set [7] is reported as 4.359 ± 0.183.
`CCN(CC)c1nc(NCC=C(C)C)c2ncn(C3CCCO3)c2n1` (stereo not shown) [Compound 93] returned an MDA in the data set with NIH3T3 fibroblasts of 10.5 nmol/g FW. Moreover, the concentration for half-maximal inhibition (IC50) (with NIH-3T3 [4]; in the data set with B10A.4 [5]; in data set [6]) was above 167 µM each time.
On to `C/C(=C\CNc1nc(NCCN(C)C)nc2c1ncn2C1CCCO1)CO` (stereo not shown) [Compound 99], for which the MDA in the data set on NIH3T3 fibroblasts was found to be 10.2 nmol/g FW. Further, the half-inhibitory concentration (IC50) (in the data set on NIH-3T3 [4]; in the data set on B10A.4 [5]; in data set [6]) was above 167 µM in each case.
Regarding `CCNc1nc(NC/C=C(/C)CO)c2ncn(C3CCCO3)c2n1` (stereo not shown) [Compound 101], the MDA in the data set with NIH3T3 fibroblasts stood at 10.6 nmol/g FW. The IC50 (in the data set on NIH-3T3 [4]; in the data set with B10A.4 [5]; in data set [6]) was above 167 µM throughout.
Molecule `CCN(CC)c1nc(NC/C=C(/C)CO)c2ncn(C3CCCO3)c2n1` (stereo not shown) [Compound 103] gave an MDA in the data set with NIH3T3 fibroblasts of 10.1 nmol/g FW. Also, the 50% inhibitory concentration (IC50) (with NIH-3T3 [4]; in the data set with B10A.4 [5]; in data set [6]) was above 167 µM throughout.
Molecule `C/C(=C/CNc1nc(NCCN(C)C)nc2c1ncn2C1CCCO1)CO` (stereo not shown) [Compound 104] yielded an MDA in the data set with NIH3T3 fibroblasts of 9.6 nmol/g FW. For the same molecule, the IC50 (with NIH-3T3 [4]; in the data set on B10A.4 [5]; in data set [6]) was above 167 µM in each case.
For `CNc1nc(NCCC(C)CO)c2ncn(C3CCCO3)c2n1` (stereo not shown) [Compound 105], in the data set on NIH3T3 fibroblasts, the MDA came to 10.6 nmol/g FW. Also, the IC50 (in the data set with NIH-3T3 [4]; with B10A.4 [5]; in data set [6]) was above 167 µM each time.
In the case of `CC(CO)CCNc1nc(N(C)C)nc2c1ncn2C1CCCO1` (stereo not shown) [Compound 107], the MDA in the data set on NIH3T3 fibroblasts worked out at 10.3 nmol/g FW. The IC50 (in the data set with NIH-3T3 [4]; with B10A.4 [5]; in data set [6]) was above 167 µM in each case.
For `CCN(CC)c1nc(NCCC(C)CO)c2ncn(C3CCCO3)c2n1` (stereo not shown) [Compound 108], the MDA in the data set with NIH3T3 fibroblasts is 9.7 nmol/g FW. For the same molecule, the concentration for half-maximal inhibition (IC50) (with NIH-3T3 [4]; in the data set with B10A.4 [5]; in data set [6]) was above 167 µM each time.
Take `CNc1nc(NCc2ccco2)c2ncn(C3CCCCO3)c2n1` (stereo not shown) [Compound 110, 2-(Methylamino)-6-furfurylamino-9-(tetrahydro-2H-pyran-2-yl)-9H-purine]: in data set [7], the “ORAC (compound/trolox)” value is listed as 0.205 ± 0.032.
On to `CCNc1nc(NCc2occc2C)c2ncn(C3CCCCO3)c2n1` (stereo not shown) [Compound 119], for which the IC50 (with B10A.4 [1]; with NIH-3T3 [2]; in data set [3]) was above 167 µM each time. The MDA with NIH3T3 fibroblasts was found to be 9.7 nmol/g FW.
With `Cc1coc(CNc2nc(NCCN(C)C)nc3c2ncn3C2CCCCO2)c1` (stereo not shown) [Compound 127], the half-maximal inhibitory concentration (IC50) (in the data set on B10A.4 [1]; in the data set with NIH-3T3 [2]; in data set [3]) was above 167 µM each time. Moreover, in the data set on NIH3T3 fibroblasts, the MDA was found to be 10.4 nmol/g FW.
With `CNc1nc(NCc2ccc(C)o2)c2ncn(C3CCCCO3)c2n1` (stereo not shown) [Compound 128, 2-(Methylamino)-6-[(5-methylfurfuryl)amino]-9-(tetrahydro-2H-pyran-2-yl)-9H-purine], the “ORAC (compound/trolox)” value in data set [7] was determined as 0.461 ± 0.003.
Take `CN(C)c1nc(NCc2cccc(O)c2)c2ncn(C3CCCCO3)c2n1` (stereo not shown) [Compound 155, 2-(Dimethylamino)-6-[(3-hydroxybenzyl)amino]-9-(tetrahydro-2H-pyran-2-yl)-9H-purine]: in data set [7], the “ORAC (compound/trolox)” value is 2.422 ± 0.107.
For `CN(C)c1nc(NCc2ccc(O)cc2)c2ncn(C3CCCCO3)c2n1` (stereo not shown) [Compound 160, 2-(Dimethylamino)-6-[(4-hydroxybenzyl)amino]-9-(tetrahydro-2H-pyran-2-yl)-9H-purine], the “ORAC (compound/trolox)” value in data set [7] came out at 0.728 ± 0.016.
On to `Oc1ccccc1CNc1ncnc2nc[nH]c12` [ortho-topolin, reference compound], for which the IC50 was determined as 94.1 µM in the data set with NIH-3T3 [4] and 108 µM in data set [6].
